The test system of one experiment is Liver. Nature of the experiment: Induction of NO release in Wistar rat liver homogenate at 200 uM by amperometric detection method. The format is functional, tissue-based.
Another experiment has as its system Aorta. Put plainly: Vasorelaxant activity in endothelium-denuded Wistar rat thoracic aortic ring assessed as inhibition of KCl-induced contraction. The format is functional, tissue-based.
The subject of another experiment is Platelet. Nature of the experiment: Inhibition of ADP-induced platelet aggregation in human platelet-rich plasma at 100 uM treated 2 mins before ADP challenge by turbidimetric method. In kind it is functional. Also on record: scale not given: the % may be the effect or the level left.
In the next experiment the test system is Rattus norvegicus. Put plainly: Hypoglycemic activity in streptozotocin-induced diabetic Wistar rat assessed as reduction in blood glucose AUC level at 10 mg/kg, ip measured for 2 hrs (Rvb= 45318 mg/dl/2 h). The format is functional, organism-based. Also on record: dose 10 mg/kg.
Experiment [1] is described as follows: Induction of 20 mM glucose-stimulated insulin secretion in human pancreatic islet cells assessed as insulin stimulation index at 100 uM by immunoradiometric assay. The format is functional.
Experiment [2] is described as follows: Induction of 20 mM glucose-stimulated insulin secretion in human pancreatic islet cells assessed as insulin stimulation index at 10 uM by immunoradiometric assay. The format is functional.

Structures are written as SMILES. Active and inactive are the calls of the source. The calls are words filed in the database; no cut-off is given here.

`O=[N+]([O-])OCC(CO[N+](=O)[O-])O[N+](=O)[O-]` [NITROGLYCERIN]: the figures for the Activity with Liver and in the experiment with Platelet were 600 nM and 28%, respectively. Moreover, the Emax with Aorta amounted to 98%. For the same molecule, the IC50 with Aorta is 58.9 nM.
With `COc1ccc(Cl)cc1C(=O)NCCc1ccc(S(=O)(=O)NC(=O)NC2CCCCC2)cc1` [GLYBURIDE], the AUC in the experiment on Rattus norvegicus was determined as 33100 mg·min/dL. In the experiment on Liver, the outcome was inactive. Besides, the Activity was 5.2 in experiment [1], 4.3 in experiment [2] and 67% in the experiment with Platelet.
For `COc1ccc(Cl)cc1C(=O)NCCc1ccc(S(=O)(=O)NC(=O)N[C@H]2CC[C@H](O)CC2)cc1` [4-TRANS-HYDROXY-GLYBENCLAMIDE] the same measures were 34500 mg·min/dL, “inactive”, 8.2, 6 and 76%.
